This passage reports IC50 results from patent US11958854B2 (Hydra Biosciences, LLC, priority 2013, dated 2024).

The target in this assay is T1, hTRPC4 (Homo sapiens, UniProt Q9UBN4).
T1 sequence (Q9UBN4 1-977): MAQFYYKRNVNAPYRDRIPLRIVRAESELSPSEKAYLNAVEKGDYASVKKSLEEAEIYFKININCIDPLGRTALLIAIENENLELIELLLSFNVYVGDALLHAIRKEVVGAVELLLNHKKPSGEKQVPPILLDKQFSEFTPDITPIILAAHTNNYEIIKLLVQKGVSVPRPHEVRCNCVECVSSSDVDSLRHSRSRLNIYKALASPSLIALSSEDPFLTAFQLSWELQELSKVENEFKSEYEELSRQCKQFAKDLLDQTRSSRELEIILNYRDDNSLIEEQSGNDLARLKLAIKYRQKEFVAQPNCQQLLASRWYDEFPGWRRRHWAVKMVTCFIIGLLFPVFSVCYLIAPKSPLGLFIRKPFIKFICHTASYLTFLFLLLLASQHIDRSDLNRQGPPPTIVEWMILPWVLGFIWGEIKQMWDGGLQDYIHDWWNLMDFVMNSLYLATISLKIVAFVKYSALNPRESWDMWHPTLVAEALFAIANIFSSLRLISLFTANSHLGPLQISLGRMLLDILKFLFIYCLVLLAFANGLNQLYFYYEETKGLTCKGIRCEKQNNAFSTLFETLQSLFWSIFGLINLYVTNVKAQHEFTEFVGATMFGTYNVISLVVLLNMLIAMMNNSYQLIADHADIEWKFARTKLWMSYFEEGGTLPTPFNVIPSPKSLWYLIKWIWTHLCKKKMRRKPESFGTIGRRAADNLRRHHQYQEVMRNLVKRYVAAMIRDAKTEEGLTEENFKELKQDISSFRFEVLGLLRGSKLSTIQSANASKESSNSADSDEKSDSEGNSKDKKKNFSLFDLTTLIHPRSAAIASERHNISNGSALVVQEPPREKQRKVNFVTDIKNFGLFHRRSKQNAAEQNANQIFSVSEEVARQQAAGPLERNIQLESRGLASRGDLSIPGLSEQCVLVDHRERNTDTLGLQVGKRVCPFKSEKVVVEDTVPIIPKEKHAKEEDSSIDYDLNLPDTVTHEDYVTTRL
The assay can be described thus: Whole-cell patch clamp, inward current (Table B). The assay is classed as cell-based. Particulars: IC50 estimated by testing at 5 μM and 500 nM, all batches, read-out: hTRPC4 Patch Inwd (nM) (All Batches). From the text: Patch clamp experiments permit the detection of currents through the TRPC5 channel in the cell line described above. In normal whole-cell patch clamp recordings, a glass electrode is brought into contact with a single cell and a high-resistance (gigaohm) seal is established with the cell membrane. The membrane is then ruptured to achieve the whole-cell configuration, permitting control of the voltage of the cell membrane and measurement of currents flowing across the membrane using the amplifier attached to the electrode and resulting in the replacement of cytoplasm with the pipette solution. A perfusion system permits control of the extracellular solution, including the addition of blockers and activators of the current.
TRPC5 cells were induced 20-48 hours, removed from growth plates, and replated at low density (to attain good single-cell physical separation) on glass coverslips for measurement. In some cases, cells were grown in low density overnight on glass coverslips. Patch clamp recordings were made in the whole-cell mode with a holding potential of −40 mV. Every 5 seconds, a voltage ramp was applied from −120 to +100 mV, 400 ms in duration. Currents elicited were quantified at −80 mV and +80 mV. […] The external solution consisted of 150 mM NaCl, 4.5 mM KCl, 1 mM MgCl2, 2 mM CaCl2), 10 mM HEPES, 10 mM glucose, 1 mM EGTA, pH 7.4. […] Potential blockers were tested for ability to block both inward and outward currents in the continued presence of LaCl3.
“F” refers to agonist compounds. “ND” refers to compounds wherein the IC50 was not determined.

`Cn1c(=O)n(CCCO)c(=O)c2c1nc(Oc1cccc(OC(F)(F)F)c1)n2Cc1ccc(Cl)cc1` [Example 30]: the IC50 was under 100 nM. For `CCCOc1nc2c(c(=O)n(CCCO)c(=O)n2C)n1Cc1ccc(Cl)cc1` [Example 82] the value was under 100 nM. As to `CCn1c(=O)n(CCCO)c(=O)c2c1nc(Oc1cccc(OC(F)(F)F)c1)n2Cc1ccccc1` [Example 145], the IC50 is under 100 nM. For `Cc1cnc(Cn2c(Oc3cccc(OC(F)(F)F)c3)nc3c2c(=O)n(CCCO)c(=O)n3C)s1` [Example 161] the value was under 100 nM; for `CC(C)c1ccccc1-c1nc2c(c(=O)n(CCCO)c(=O)n2C)n1Cc1ccccc1` [Example 485], under 100 nM. As for `CC(C)CCn1c(Oc2cccc(OC(F)(F)F)c2)nc2c1c(=O)n(CCCO)c(=O)n2C` [Example 587], the IC50 is under 100 nM.
